Experiments:
[1] = system: T-AKT and P-AKT; assay: Competition; assay type: cell-based, human; conditions: BT474, then degrader 22 h; for effect of GDC-0068 pretreatment on degrader-induced AKT degradation: 2 h pretreatment with GDC-0068 (1 μM); for effect of MG132 pretreatment on degrader-induced AKT degradation: 2 h pretreatment with MG132 (10 μM); for effect of MLN4924 pretreatment on degrader-induced AKT degradation: 2 h pretreatment with MLN4924 (1 μM)
[2] = system: T-AKT and P-AKT (S473); assay: Western blot of AKT degradation in PC3 cells; assay type: cell-based, human; conditions: for T-AKT and P-AKT degradation (western blot): PC3 cells, 1 μM, 24 h
[3] = system: MDA-MB-468 cells; assay: Apoptosis assay; assay type: cell-based, human; conditions: MDA-MB-468 cells (Figure S5)
[4] = system: total AKT (T-AKT) and phosphorylated AKT (P-AKT (S473)); assay: Western blot of AKT degradation in BT474 cells; assay type: cell-based, human; conditions: for time course of T-AKT and P-AKT degradation: indicated times; for T-AKT and P-AKT protein degradation (western blot): 24 h, 1, 5 and 10 μM (12-13: 1, 3 and 10 μM); for hook effect in AKT degradation: higher concentrations (up to 10 μM); for extent of T-AKT degradation in concentration-response: indicated concentrations; for hook effect in concentration-response: concentrations up to 10 μM
[5] = system: PC3 cells; assay: Cell proliferation assay; assay type: cell-based, human; conditions: 5 days
[6] = system: MDA-MB-468 cells; assay: Cell proliferation assay; assay type: cell-based, human; conditions: 5 days
[7] = assay type: in vivo; conditions: mice, single IP injection, 50 mg/kg
[8] = system: P-PRAS40 (T246) and P-S6 (S240/244); assay: Western blot of downstream signaling inhibition in BT474 cells; assay type: cell-based, human; conditions: for kinetics of downstream signaling inhibition: vs GDC-0068; for inhibition of downstream signaling, P-PRAS40 and P-S6: compared with GDC-0068 (1 μM)
[9] = 50 mg/kg; for time of Cmax: male Swiss albino mice, single IP injection
[10] = system: P-PRAS40 (T246) and P-S6 (S240/244); assay: Western blot of downstream signaling inhibition in PC3 cells; assay type: cell-based, human; conditions: 1 μM, 24 h, vs GSK690693

With `Cc1ncsc1-c1ccc([C@H](C)NC(=O)[C@@H]2C[C@@H](O)CN2C(=O)[C@@H](NC(=O)CCCCCCCCCCC(=O)NCCNC[C@@H](C(=O)N2CCN(c3ncnc4c3[C@H](C)C[C@H]4O)CC2)c2ccc(Cl)cc2)C(C)(C)C)cc1` [Compound 13, N^1-(2-(((S)-2-(4-Chlorophenyl)-3-(4-((5R,7R)-7-hydroxy-5-methyl-6,7-dihydro-5H-cyclopenta[d]pyrimidin-4-yl)piperazin-1-yl)-3-oxopropyl)amino)ethyl)-N^12-((S)-1-((2S,4R)-4-hydroxy-2-(((S)-1-(4-(4-methylthiazol-5-yl)phenyl)ethyl)carbamoyl)pyrrolidin-1-yl)-3,3-dimethyl-1-oxobutan-2-yl)dodecanediamide] the “effect of GDC-0068 pretreatment on degrader-induced AKT degradation” value [1] was “blocked the AKT degradation induced by 13”, the “effect of MG132 pretreatment on degrader-induced AKT degradation” value [1] was “completely prevented 13-mediated degradation of T-AKT and P-AKT and inhibition of P-PRAS40” and the “effect of MLN4924 pretreatment on degrader-induced AKT degradation” value [1] was “completely prevented 13-mediated degradation of T-AKT and P-AKT and inhibition of P-PRAS40”. The “AKT degradation, concentration-response” value [2] was “effectively induced AKT degradation in a concentration-dependent manner”, the apoptosis induced [3] was ≤ 3% and the “duration of T-AKT and P-AKT degradation” value ([4]; 1 μM) was “at least 24 h”. The “time course of T-AKT and P-AKT degradation” value ([4]; 1 μM) was “Obvious degradation occurred at 4 h, and near-complete degradation was achieved at 8 h”, the “T-AKT and P-AKT protein degradation (western blot)” value (shortened to “T-AKT and P-AKT protein degradation”) [4] was “remarkable effects on degrading T-AKT and P-AKT” and the “hook effect in AKT degradation” value ([4]; 24 h) was “less ″hook effect″ than 12”. The “extent of T-AKT degradation in concentration-response” value ([4]; 24 h) was “near-complete depletion of T-AKT at 1 μM”, the “hook effect in concentration-response” value [4] was “No ″hook effect″ was observed” and the growth inhibition [5] was “comparable potencies to GDC-0068 and INY-03–041”. The growth inhibition [6] was “comparable potencies to GDC-0068 and INY-03–041”, the tolerability [7] was “well tolerated” and the “kinetics of downstream signaling inhibition” value ([8]; 1 μM) was “not as rapid as that induced by GDC-0068”. The “inhibition of downstream signaling, P-PRAS40 and P-S6” value (shortened to “inhibition … P-PRAS40 and P-S6”) ([8]; 24 h) was “more profound inhibition of P-PRAS40 and P-S6 than 11”, the “time of Cmax” value [9] was 2 h and the “plasma concentrations over 8 h” value ([9]; mouse, in vivo, ip) was “above 3 μM”.

For `CCn1c(-c2nonc2N)nc2c(C#CC(C)(C)O)ncc(OCCCNCCCC(=O)NCCCCCCCCNc3cccc4c3C(=O)N(C3CCC(=O)NC3=O)C4=O)c21` (stereo not drawn) [Compound 60, 4-((3-((2-(4-Amino-1,2,5-oxadiazol-3-yl)-1-ethyl-4-(3-hydroxy-3-methylbut-1-yn-1-yl)-1H-imidazo[4,5-c]pyridin-7-yl)oxy)propyl)-amino)-N-(8-((2-(2,6-dioxopiperidin-3-yl)-1,3-dioxoisoindolin-4-yl)-amino)octyl)butanamide], the “inhibition of P-PRAS40” value [10] was “less effective than GSK690693 in inhibiting P-PRAS40” and the “T-AKT and P-AKT degradation (western blot)” value [2] was “the most effective in degrading T-AKT and P-AKT”.

With `Cc1ncsc1-c1ccc([C@H](C)NC(=O)[C@@H]2C[C@@H](O)CN2C(=O)[C@@H](NC(=O)CCCCCCCCCCNC(=O)CCNC[C@@H](C(=O)N2CCN(c3ncnc4c3[C@H](C)C[C@H]4O)CC2)c2ccc(Cl)cc2)C(C)(C)C)cc1` [Compound 12, (2S,4R)-1-((S)-2-(11-(3-(((S)-2-(4-Chlorophenyl)-3-(4-((5R,7R)-7-hydroxy-5-methyl-6,7-dihydro-5H-cyclopenta[d]pyrimidin-4-yl)-piperazin-1-yl)-3-oxopropyl)amino)propanamido)-undecanamido)-3,3-dimethylbutanoyl)-4-hydroxy-N-((S)-1-(4-(4-methylthiazol-5-yl)phenyl)ethyl)pyrrolidine-2-carboxamide] the “T-AKT and P-AKT protein degradation” value [4] was “remarkable effects on degrading T-AKT and P-AKT” and the “inhibition … P-PRAS40 and P-S6” value ([8]; 24 h) was “more profound inhibition of P-PRAS40 and P-S6 than 11”.

For `CCn1c(-c2nonc2N)nc2c(C#CC(C)(C)O)ncc(OCCCNCCCC(=O)NCCCCCCCCCCC(=O)N[C@H](C(=O)N3C[C@H](O)C[C@H]3C(=O)NCc3ccc(-c4scnc4C)cc3)C(C)(C)C)c21` [Compound 48, (2S,4R)-1-((S)-2-(11-(4-((3-((2-(4-Amino-1,2,5-oxadiazol-3-yl)-1-ethyl-4-(3-hydroxy-3-methylbut-1-yn-1-yl)-1H-imidazo[4,5-c]-pyridin-7-yl)oxy)propyl)amino)butanamido)undecanamido)-3,3-dimethylbutanoyl)-4-hydroxy-N-(4-(4-methylthiazol-5-yl)benzyl)-pyrrolidine-2-carboxamide], the “inhibition of P-PRAS40” value [10] was “less effective than GSK690693 in inhibiting P-PRAS40” and the “T-AKT and P-AKT degradation (western blot)” value [2] was “the most effective in degrading T-AKT and P-AKT”.

In the case of `Cc1ncsc1-c1ccc(CNC(=O)[C@@H]2C[C@@H](O)CN2C(=O)[C@@H](NC(=O)CCCCCCCCCCNC(=O)CCNC[C@@H](C(=O)N2CCN(c3ncnc4c3[C@H](C)C[C@H]4O)CC2)c2ccc(Cl)cc2)C(C)(C)C)cc1` [Compound 11, (2S,4R)-1-((S)-2-(11-(3-(((S)-2-(4-Chlorophenyl)-3-(4-((5R,7R)-7-hydroxy-5-methyl-6,7-dihydro-5H-cyclopenta[d]pyrimidin-4-yl)-piperazin-1-yl)-3-oxopropyl)amino)propanamido)-undecanamido)-3,3-dimethylbutanoyl)-4-hydroxy-N-(4-(4-methyl-thiazol-5-yl)benzyl)pyrrolidine-2-carboxamide], the “T-AKT and P-AKT protein degradation” value [4] is reported as “near-complete degradation of T-AKT and P-AKT at 1 μM”, the “hook effect in AKT degradation” value ([4]; 24 h) is reported as “at 5 and 10 μM, a ″hook effect″ was observed” and the “inhibition … P-PRAS40 and P-S6” value ([8]; 24 h) is reported as “less effective than the parent inhibitor GDC-0068”.

For `C[C@@H]1C[C@@H](O)c2ncnc(N3CCN(C(=O)[C@H](CNCCNC(=O)CCCCCCCCNc4cccc5c4C(=O)N(C4CCC(=O)NC4=O)C5=O)c4ccc(Cl)cc4)CC3)c21` (stereo partly drawn) [Compound 26, N-(2-(((S)-2-(4-chlorophenyl)-3-(4-((5R,7R)-7-hydroxy-5-methyl-6,7-dihydro-5H-cyclopenta[d]pyrimidin-4-yl)piperazin-1-yl)-3-oxopropyl)amino)ethyl)-9-((2-(2,6-dioxopiperidin-3-yl)-1,3-dioxoisoindolin-4-yl)amino)nonanamide], the “P-AKT (S473) protein level (western blot)” value ([4]; 24 h, GDC-0068 at 1 μM) was “did not reduce the P-AKT level”, the “T-AKT protein level (western blot)” value ([4]; 24 h, controls at 1 μM) was “partially degraded T-AKT” and the “inhibition of P-PRAS40” value ([8]; 1 μM, 24 h) was “as effectively as GDC-0068”.

In the case of `C[C@@H]1C[C@@H](O)c2ncnc(N3CCN(C(=O)[C@H](CNCCC(=O)NCCCCCCCCNc4cccc5c4C(=O)N(C4CCC(=O)NC4=O)C5=O)c4ccc(Cl)cc4)CC3)c21` (stereo partly drawn) [Compound 25], the “effect of GDC-0068 pretreatment on degrader-induced AKT degradation” value [1] is reported as “rescued 25-induced AKT degradation”, the “effect of MG132 pretreatment on degrader-induced AKT degradation” value [1] is reported as “rescued 25-induced AKT degradation” and the “effect of MLN4924 pretreatment on degrader-induced AKT degradation” value [1] is reported as “rescued 25-induced AKT degradation”. For the same molecule, the “AKT degradation, concentration-response” value [2] was “effectively induced AKT degradation in a concentration-dependent manner”, the apoptosis induced [3] was ≤ 3% and the “duration of T-AKT and P-AKT degradation” value ([4]; 1 μM) was “at least 24 h”. For the same molecule, the “T-AKT and P-AKT degradation” value ([4]; 1 μM, 24 h) was > 95%, the “time course of T-AKT and P-AKT degradation” value ([4]; 1 μM) was “Significant P-AKT and T-AKT degradation occurred as early as 4 and 8 h, respectively” and the “T-AKT and P-AKT protein degradation” value [4] was “highly effective in reducing T-AKT and P-AKT protein levels”. The “hook effect in AKT degradation” value ([4]; 24 h) was “without a ″hook effect″”, the “extent of T-AKT degradation in concentration-response” value ([4]; 24 h) was “complete degradation of T-AKT at 300 nM” and the “hook effect in concentration-response” value [4] was “No ″hook effect″ was observed”. For the same molecule, the growth inhibition [5] was “comparable potencies to GDC-0068 and INY-03–041”, the growth inhibition [6] was “comparable potencies to GDC-0068 and INY-03–041” and the tolerability [7] was “well tolerated”. For the same molecule, the “kinetics of downstream signaling inhibition” value ([8]; 1 μM) was “not as rapid as that induced by GDC-0068”, the “inhibition … P-PRAS40 and P-S6” value ([8]; 24 h) was “most effective in inhibiting the downstream signaling” and the “time of Cmax” value [9] was 2 h.
